Experiment [1] concerns P. aeruginosa (ATCC® 27853™). As to the kind of experiment: Mouse model of Pseudomonas keratitis (CFU/eye). The format is in vivo, Pseudomonas aeruginosa in C57/BL mice. To be noted: 10 and 20 mg/ml groups together. Here is the method:
A circular wound (2 mm) was created on the mouse cornea by removing the epithelium and infecting the wound with 10^5 CFU of P. aeruginosa (ATCC® 27853™ (American Type Culture Collection, Manassas, Va.)). Infected wounds were treated with saline or saline containing indicated concentrations of peptide every 15 minutes for 2 hours, then every 30 minutes for 3 hours on the first day. Infected wounds were treated twice on the second day and once on the third day. Mice were killed at 48 hours post-infection, and the colony forming units per eye (CFU/eye) were quantified. The means are plotted and are representative of 5 to 9 mice per group. Mann Whitney test was performed for each group as compared to the saline control group.
For FIGS. 15-17, in vivo bactericidal activity of the peptides was also investigated using the standard Pseudomonas keratitis model in the mouse eye (FIGS. 15-17). Peptides 120-146QR-5RMP (SEQ ID NO: 32), 120-146WH (SEQ ID NO: 31), and 120-146WR (SEQ ID NO: 30) were applied topically at doses of 2, 5, 10, and 20 mg/ml to the wounded cornea that had been infected with 10^5 CFU of Pseudomonas aeruginosa. The efficacies of the peptides were compared to treatment with the vehicle control. Mice were euthanized at 48 hours post infection, and the CFU/eye were quantified.

Experiment [2] concerns Pseudomonas clinical isolate B64. As to the kind of experiment: BIOSCREEN C growth assay / MIC, antibiotic in combination with peptide. The format is cell-based, P. aeruginosa. Here is the method: The peptide and antibiotics were set up in the wells of the microtiter plate at starting ratios of MIC equivalents of antibiotic:peptide at 3:1, 1:1, and 1:3. They were serially diluted to concentrations well below suboptimal/sublethal levels of the antibiotic and peptide. The organism was added (1×10^5 CFU/well), the BIOSCREEN C™ assay (Growth Systems USA, Piscataway, N.J.) was performed, and data was collected over 24 hours.

Experiment [3] deals with Acinetobacter baumannii ATCC® BAA-747™. The format is cell-based. To be noted: starting inoculum 1×10^6 CFU/ml; 60 to 180 minute incubation. As to the method:
(§1) In vitro bactericidal activity: The three peptide compounds BCC01-5RMP (SEQ ID NO: 21), BCC02-5RMP (SEQ ID NO: 22), and BCC03-5RMP (SEQ ID NO: 23) were assayed for in vitro bactericidal activity against Pseudomonas aeruginosa, Escherichia coli, Salmonella typhimurium, and Acinetobacter baumannii. The starting inoculum for all experiments was 1×10^6 colony forming units (CFU)/ml. The CFU remaining at the end of 60 to 180 minute incubation was determined, and the data plotted as a log reduction in CFU/ml.
(§2) For FIGS. 10-13, in vitro bactericidal assays were performed using a starting inoculum of 1×10^6 CFU/ml of the bacterial suspension. The CFU remaining at the end of the 60-180 minute incubation was determined, and the data was plotted as log reduction in CFU/ml.
(§3) In particular, each of the test peptides (CAP37 peptides 120-146WR, 120-146WH, and 95-122 (SEQ ID NOs: 30, 31, and 26, respectively)) was used at 25, 12.5, 6.25, and 3.12 μM. Gentamicin was used at 4 μg/ml. 1×10^6/ml Acinetobacter baumannii ATCC® BAA-747™ or Pseudomonas aeruginosa ATCC® 27853™ (American Type Culture Collection, Manassas, Va.) were incubated with the peptides, negative buffer control (tryptone saline), and positive control gentamicin at pH 5.5 or 7.2. A 60 minute incubation was used for Acinetobacter baumannii ATCC® BAA-747™, while a 180 minute incubation was used for Pseudomonas aeruginosa ATCC® 27853™. 50 μl aliquots were plated out on agar plates and incubated overnight. Colony forming units were counted after overnight incubation and CFU/ml calculated.

Another experiment relates to RAW264.7 cells. Briefly: LPS neutralization: TNF-α release from LPS-stimulated RAW264.7 cells. The format is cell-based, mouse. As to the method:
(§4) The well-characterized response of RAW264.7 macrophage cells was used to produce tumor necrosis-factor-alpha (TNF-α) in response to LPS to determine whether the peptides could dampen the release of this cytokine. […] Importantly, pre-treatment (3 hours prior to LPS addition) as well as post-treatment of the RAW264.7 cells (3 hours post LPS addition) with peptide dampened the cytokine release. […] The finding that the novel peptides bind and neutralize the effect of Pseudomonas LPS is of critical importance since this ensures that the novel therapeutic peptide compounds described herein will not only kill the bacteria, but will also neutralize the LPS endotoxin released by the bacteria which plays such an important role in the rapid progression of sepsis.
(§5) BCC01-5RMP (SEQ ID NO: 21), BCC02-5RMP (SEQ ID NO: 22), and BCC03-5RMP (SEQ ID NO: 23) were tested for their ability to bind lipopolysaccharide (LPS) using the limulus amebocyte lysate method (LAL). […] There was no statistical difference in their ability to bind LPS using the LAL technique. The ability of the peptides to neutralize LPS was assessed by determining their ability to attenuate the release of tumor necrosis factor-alpha (TNF-α) from LPS-stimulated RAW264.7 cells (a mouse macrophage cell line). […] No significant differences were observed between the three peptides to neutralize LPS as measured by cytokine release.

A further experiment deals with Pseudomonas LPS. As to the kind of experiment: LPS binding, Limulus Amebocyte Lysate (LAL) assay. Here is the method: as §4, §5
For the next experiment, the system named is Salmonella typhimurium. Briefly: In vitro bactericidal assay. The format is cell-based. Here is the method:
as §1

For experiment [4], the system named is E. coli ATCC® strain 25922™. The format is cell-based, Escherichia coli. To be noted: Peptide Conc 1.56 μg/ml; Table 6. The arrangement: unit not given here. As to the method:
as §1

In experiment [5] the test system is Pseudomonas aeruginosa ATCC® 27853™. The format is cell-based. To be noted: Table 6. Also on record: Effects of Peptide Compounds on Pseudomonas aeruginosa ATCC ® 27853 ™: unit not given here. As to the method:
as §1, §2, §3
For FIG. 14, 1×10^6/ml Pseudomonas aeruginosa ATCC® 27853™ were incubated with each of the test peptides (CAP37 peptides 120-146WR, 120-146WH, 120-146QR, 120-146QH, 120-146QR-5RMP, and 120-146QH-5RMP (SEQ ID NOs: 30, 31, 28, 29, 32, and 33, respectively)) at 150, 75, and 37.5 μg/ml, or negative buffer control (tryptone saline), for 180 minutes at pH 5.5. 50 μl aliquots were plated out on agar plates and incubated overnight. Colony forming units were counted after overnight incubation and CFU/ml calculated.

Read-outs that look alike come from different tables or passages of the source. Square brackets hold non-standard residues; d marks the D form. Peptide text beside a SMILES is read from it. AEEA = NCCOCCOCC(=O)O

Turning to `CC(C)C[C@H](NC(=O)[C@H](CCCNC(=N)N)NC(=O)CNC(=O)CNC(=O)[C@H](CO)NC(=O)[C@H](CCCNC(=N)N)NC(=O)[C@H](CCC(N)=O)NC(=O)[C@H](CO)NC(=O)CNC(=O)[C@H](Cc1c[nH]c2ccccc12)NC(=O)CNC(=O)[C@H](C)NC(=O)[C@@H](NC(=O)[C@H](CCC(N)=O)NC(=O)[C@H](CS)NC(=O)[C@H](CCCNC(=N)N)NC(=O)[C@@H](NC(=O)CNC(=O)[C@H](CCCNC(=N)N)NC(=O)[C@H](CCCNC(=N)N)NC(=O)[C@H](CCCNC(=N)N)NC(=O)[C@H](CCCNC(=N)N)NC(=O)COCCOCCNC(=O)COCCOCCN)[C@@H](C)O)C(C)C)C(=O)N[C@@H](CO)C(=O)N[C@@H](CCCNC(=N)N)C(=O)N[C@@H](Cc1ccccc1)C(=O)N1CCC[C@H]1C(=O)N[C@@H](CCCNC(=N)N)C(=O)N[C@@H](Cc1ccccc1)C(=O)N[C@H](C(=O)N[C@@H](CC(N)=O)C(=O)N[C@H](C(=O)N[C@@H](CCCNC(=N)N)C(=O)O)C(C)C)C(C)C` [120-146QR-5RMP] (H-[AEEA][AEEA]RRRRGTRCQVAGWGSQRSGGRLSRFPRFVNVR-OH; N-terminus and C-terminus assumed), the “mice with no viable bacteria in the eye after treatment” value in experiment [1] is “Six of the 10 mice”.
In the case of `CC[C@H](C)[C@H](NC(=O)[C@H](CC(C)C)NC(=O)[C@H](C)NC(=O)CNC(=O)CNC(=O)[C@H](CO)NC(=O)[C@H](Cc1ccccc1)NC(=O)[C@H](Cc1c[nH]cn1)NC(=O)[C@H](CCCNC(=N)N)NC(=O)CNC(=O)[C@H](CCC(N)=O)NC(=O)[C@H](CC(N)=O)NC(=O)[C@H](CCCNC(=N)N)NC(=O)[C@H](CCCNC(=N)N)NC(=O)[C@H](CCCNC(=N)N)NC(=O)[C@H](CCCNC(=N)N)NC(=O)COCCOCCNC(=O)COCCOCCN)C(=O)N[C@@H](Cc1c[nH]cn1)C(=O)N[C@@H](C)C(=O)N[C@@H](CCCNC(=N)N)C(=O)N[C@@H](Cc1ccccc1)C(=O)N[C@H](C(=O)N[C@@H](CCSC)C(=O)N[C@H](C(=O)N[C@@H](C)C(=O)N[C@@H](C)C(=O)N[C@@H](CO)C(=O)N[C@@H](CS)C(=O)N[C@@H](Cc1ccccc1)C(=O)N[C@@H](CCC(N)=O)C(=O)N[C@@H](CCCNC(=N)N)C(=O)O)[C@@H](C)O)C(C)C` [BCC02-5RMP] (H-[AEEA][AEEA]RRRRNQGRHFSGGALIHARFVMTAASCFQR-OH; N-terminus and C-terminus assumed), in experiment [2] (3.04 μg/ml peptide with Cefotaxime 2.81 μg/ml, P=0.0143), the “effect of added peptide on sensitivity of the bacterium to Cefotaxime” value is recorded as “now sensitive”. Moreover, in experiment [2] (3.04 μg/ml peptide with Levofloxacin 3.6 μg/ml), the “effect of added peptide with Levofloxacin, Fractional area (FA)” value is reported as “shows significance”. The “effect of added peptide on killing by Ciprofloxacin” value in experiment [2] (4.05 μg/ml peptide with […] Ciprofloxacin, P=0.0003) is “significantly affected killing”. Further, the “effect of added peptide on the killing effect of Cefotaxime” value in experiment [2] (0.34 and 1.0 μg/ml peptide with Cefotaxime 2.81 μg/ml) is “no statistical effect”. The “activity against Acinetobacter baumannii” value in experiment [3] is reported as “most active”. The “release of TNF-α in response to Pseudomonas LPS” value with RAW264.7 cells was “attenuate the release of TNF-α”. Besides, the “binding of Pseudomonas LPS (LAL)” value in the experiment with Pseudomonas LPS is reported as “bound Pseudomonas LPS”. Further, the “activity against Salmonella typhimurium” value in the experiment on Salmonella typhimurium is “strong, but lesser activity”.
For the compound `CC[C@H](C)[C@H](NC(=O)[C@H](CC(C)C)NC(=O)[C@H](C)NC(=O)CNC(=O)CNC(=O)[C@H](CS)NC(=O)[C@H](Cc1ccccc1)NC(=O)[C@H](Cc1c[nH]cn1)NC(=O)[C@H](CCCNC(=N)N)NC(=O)CNC(=O)[C@H](CCC(N)=O)NC(=O)[C@H](CC(N)=O)NC(=O)[C@H](CCCNC(=N)N)NC(=O)[C@H](CCCNC(=N)N)NC(=O)[C@H](CCCNC(=N)N)NC(=O)[C@H](CCCNC(=N)N)NC(=O)COCCOCCNC(=O)COCCOCCN)C(=O)N[C@@H](Cc1c[nH]cn1)C(=O)N[C@@H](C)C(=O)N[C@@H](CCCNC(=N)N)C(=O)N[C@@H](Cc1ccccc1)C(=O)N[C@H](C(=O)N[C@@H](CCSC)C(=O)N[C@H](C(=O)N[C@@H](C)C(=O)N[C@@H](C)C(=O)N[C@@H](CO)C(=O)N[C@@H](CO)C(=O)N[C@@H](Cc1ccccc1)C(=O)N[C@@H](CCC(N)=O)C(=O)N[C@@H](CCCNC(=N)N)C(=O)O)[C@@H](C)O)C(C)C` [BCC03-5RMP] (H-[AEEA][AEEA]RRRRNQGRHFCGGALIHARFVMTAASSFQR-OH; N-terminus assumed), in experiment [3], the “activity against Acinetobacter baumannii” value is recorded as “most active”. Further, the “release of TNF-α in response to Pseudomonas LPS” value in the experiment with RAW264.7 cells is on record as “attenuate the release of TNF-α”. The “Effects of Peptide Compounds on Escherichia coli ATCC ® 25922 ™” value in experiment [4] is on record as 23.0. Besides, in the experiment on Pseudomonas LPS, the “binding of Pseudomonas LPS (LAL)” value is listed as “bound Pseudomonas LPS”. The “Effects of Peptide Compounds on Pseudomonas aeruginosa ATCC ® 27853 ™” value in experiment [5] (Peptide Conc 25 μg/ml), in experiment [5] (Peptide Conc 50 μg/ml), in experiment [5] (Peptide Conc 100 μg/ml) and in experiment [5] (Peptide Conc 200 μg/ml) was 100.0 throughout. In addition, in the experiment with Salmonella typhimurium, the “activity against Salmonella typhimurium” value is “strong, but lesser activity”.

The record behind these values is patent US9862748B2, “Peptide compounds and methods of production and use thereof” (priority 2012, dated 2018).
